Assay results from patent publication US20260317332A1, “BICYCLIC HETEROCYCLE COMPOUNDS FOR THE TREATMENT OF CANCER” (Hoffmann-La Roche Inc., priority 2023, published 2026).

Tests used:
CD73 [1] = biological target: T1, CD73 (Homo sapiens, UniProt P21589); assay: Human CD73 Biochemical Assay; settings: 0.05 nM recombinant CD73; AMP 5.56 μM final; 10 min at room temperature; LC/MS adenosine readout; read-out: Enzymatic IC50 against human CD73
T1 sequence (P21589 27-574): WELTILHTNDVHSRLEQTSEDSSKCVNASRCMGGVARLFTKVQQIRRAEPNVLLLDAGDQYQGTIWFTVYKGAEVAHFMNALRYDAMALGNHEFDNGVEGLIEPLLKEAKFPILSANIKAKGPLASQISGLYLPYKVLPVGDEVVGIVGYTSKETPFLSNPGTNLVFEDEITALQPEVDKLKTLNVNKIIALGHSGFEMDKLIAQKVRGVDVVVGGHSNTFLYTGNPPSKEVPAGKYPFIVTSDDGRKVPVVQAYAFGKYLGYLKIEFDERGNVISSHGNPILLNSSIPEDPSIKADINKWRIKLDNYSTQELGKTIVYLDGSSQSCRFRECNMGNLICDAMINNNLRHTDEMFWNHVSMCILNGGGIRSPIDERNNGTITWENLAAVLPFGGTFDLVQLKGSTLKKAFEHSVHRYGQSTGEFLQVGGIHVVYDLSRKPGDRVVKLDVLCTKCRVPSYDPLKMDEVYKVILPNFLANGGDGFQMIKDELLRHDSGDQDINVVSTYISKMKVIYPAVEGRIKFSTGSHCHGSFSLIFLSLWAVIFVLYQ
Experimental: The purpose of this assay is to identify and characterize inhibitors of human CD73 enzymatic activity. Compound serial dilution (1:3) was prepared with Echo 555 liquid handler (Labcyte) into the corresponding wells of a 384-well plate. 10 μL of enzyme working solution (containing 0.05 nM recombinant CD73 protein, 10 mM Tris pH 7.5, 100 mM NaCl, 0.01% BSA, 0.2 mM Octyl glucoside and 1 mM NaH2PO4) was added to the assay plate and incubated with compounds for 15 minutes at room temperature. After adding 15 μL of AMP working solution (Containing 10 mM Tris pH 7.5, 100 mM NaCl, 0.01% BSA, 0.2 mM Octyl glucoside, with 5.56 μM of AMP final concentration) and incubate for 10 min at room temperature. Stop the reaction by adding 75 μL of stop solution (5% TCA in H2O containing 250 nM 13C5-adenosine) to each well for 10 min incubation. After centrifugation, 75 μL of the mixture was transferred to a new 384-well plate for LC/MS analysis.
Samples from the 384-well plates, were loaded onto an autosampler deck, then injected with ADDA-LC-MS/MS. The aqueous mobile phase is 0.1% formic acid in water. The organic mobile phase is 0.1% formic acid in acetonitrile. Flow rate is maintained at 0.8 mL/minute using Shimadzu pumps. The column is ACE 5 Phenyl, 50×2.1 mm. The analysis was performed on a SCIEX triple quadrupole mass spectrometer operating in positive ion mode. The effluent from the HPLC column was directly introduced into the electrospray ionization (ESI). Multiple reaction monitoring (MRM) is used to determine analyte and internal standard (IS) responses. The MRM for adenosine is 268.1/136.1, for 13C5-Adenosine (IS) is 273.2/136.2. The data is calculated using the peak area ratio (PAR) semi-quantitative method.

CD73 [2] = biological target: T1, CD73; assay: CD73 Cellular Assay; format: cell-based; set-up: 40 μL of MDA-MB-231 cells (ATCC, HTB-26, breast cancer); host or cells: MDA-MB-231; settings: MDA-MB-231 cells; 200 μM AMP working solution; 45 min at 37° C.; malachite readout; read-out: Cellular IC50 against CD73
Experimental: Compound serial dilution (1:3) was prepared with Echo 555 liquid handler (Labcyte) into the corresponding wells of a 384-well plate. 40 μL of MDA-MB-231 cells (ATCC, HTB-26, breast cancer, final concentration at 20,000 cells/mL) suspended in assay buffer (20 mM HEPES pH 7.4, 137 mM NaCl, 5.4 mM KCl, 1.3 mM CaCl2, 4.2 mM NaHCO3, 1 mg/mL glucose) were added into the corresponding wells of the plate. After incubating with compounds for 30 minutes, 40 μL of AMP working solution (200 μM AMP in assay buffer) was added into each well in the assay plate. The assay plate was then incubated in a 5% CO2 incubator (Thermo Fisher Scientific) at 37° C. for 45 min. After the reaction was completed, 50 μL of the supernatants was collected and transferred into a new 384 well plate. 10 μL of Malachite A was added to each well in the assay plate and incubated for 10 minutes. 10 μL of Malachite B was then added to each corresponding well of the plate and incubated for 30 minutes. Finally the absorbance value was read on the Envision plate reader at […]. Calculation percentage inhibition by using equation {% inhibition=100×[1−(X−MIN)/(MAX−MIN)]} where X equals to the well signal, Max equals signal of neutral control and MIN equals signal of inhibitor control.

**Q.** For `C[C@@H](Nc1cc([C@@H](Oc2nn(C)c3nnc(-c4c[nH]c(=O)[nH]c4=O)cc23)C(F)F)ccn1)C(F)(F)F` [Example 27, 5-[3-[(1R)-2,2-difluoro-1-[2-[[(1R)-2,2,2-trifluoro-1-methyl-ethyl]amino]-4-pyridyl]ethoxy]-1-methyl-pyrazolo[3,4-c]pyridazin-5-yl]-1H-pyrimidine-2,4-dione], which IC50 (CD73 [1]) is on record?
**A.** 0.04 nM

**Q.** What about the IC50 (CD73 [2]) of the same molecule?
**A.** 0.48 nM

**Q.** For `Cn1nc(O[C@H](c2cc(COC(F)(F)F)ccn2)C(F)F)c2cc(-c3c[nH]c(=O)[nH]c3=O)nnc21` (single isomer, unassigned) [Example 36A], which IC50 (CD73 [1]) is on record?
**A.** 0.08 nM

**Q.** And the IC50 (CD73 [2])?
**A.** 0.62 nM

**Q.** For `Cn1nc(O[C@H](c2ccc(F)c(OCC(F)(F)F)c2)C(F)F)c2cc(-c3c[nH]c(=O)[nH]c3=O)nnc21` [Example 3, 5-[3-[(1R)-2,2-difluoro-1-[4-fluoro-3-(2,2,2-trifluoroethoxy)phenyl]ethoxy]-1-methyl-pyrazolo[3,4-c]pyridazin-5-yl]-1H-pyrimidine-2,4-dione], which IC50 (CD73 [1]) is on record?
**A.** 0.17 nM

**Q.** What about the IC50 (CD73 [2]) of the same molecule?
**A.** 0.91 nM

**Q.** Which results are given for `C[C@H](Oc1nn(C)c2nnc(-c3c[nH]c(=O)[nH]c3=O)cc12)c1cc(OCC(F)(F)F)ncn1` (single isomer, unassigned) [Example 14A]?
**A.** IC50 (CD73 [1]): 0.09 nM; IC50 (CD73 [2]): 1.04 nM

**Q.** How did the IC50 (CD73 [1]) turn out when `Cn1nc(O[C@H](c2ccnc(OCC(C)(F)F)c2)C(F)F)c2cc(-c3c[nH]c(=O)[nH]c3=O)nnc21` [Example 16, 5-[3-[(1R)-1-[2-(2,2-difluoropropoxy)-4-pyridyl]-2,2-difluoro-ethoxy]-1-methyl-pyrazolo[3,4-c]pyridazin-5-yl]-1H-pyrimidine-2,4-dione] was run?
**A.** 0.04 nM

**Q.** What about the IC50 (CD73 [2]) of the same molecule?
**A.** 0.54 nM

**Q.** How did the IC50 (CD73 [2]) turn out when `Cn1nc(O[C@H](c2cc(OCC3(C#N)CC3)ccn2)C(F)F)c2cc(-c3c[nH]c(=O)[nH]c3=O)nnc21` [Example 22, 1-[[2-[(1R)-1-[5-(2,4-dioxo-1H-pyrimidin-5-yl)-1-methyl-pyrazolo[3,4-c]pyridazin-3-yl]oxy-2,2-difluoro-ethyl]-4-pyridyl]oxymethyl]cyclopropanecarbonitrile] was run?
**A.** 0.43 nM

**Q.** Which results are given for `Cn1nc(O[C@H](c2cccc(OCC(F)(F)F)c2)C(F)F)c2cc(-c3c[nH]c(=O)[nH]c3=O)nnc21` [Example 1, 5-[3-[(1R)-2,2-difluoro-1-[3-(2,2,2-trifluoroethoxy)phenyl]ethoxy]-1-methyl-pyrazolo[3,4-c]pyridazin-5-yl]-1H-pyrimidine-2,4-dione]?
**A.** IC50 (CD73 [1]): 0.08 nM; IC50 (CD73 [2]): 0.7 nM

**Q.** With `[2H]C([2H])([2H])C([2H])([2H])Oc1cc([C@@H](Oc2nn(C)c3nnc(-c4c[nH]c(=O)[nH]c4=O)cc23)C(F)F)ccn1` [Example 30, 5-[3-[(1R)-2,2-difluoro-1-[2-(1,1,2,2,2-pentadeuterioethoxy)-4-pyridyl]ethoxy]-1-methyl-pyrazolo[3,4-c]pyridazin-5-yl]-1H-pyrimidine-2,4-dione] as the molecule, how does the IC50 (CD73 [1]) read?
**A.** 0.05 nM

**Q.** What about the IC50 (CD73 [2]) of the same molecule?
**A.** 0.6 nM

**Q.** Which results are given for `C[C@@H](OC1CC1)c1cc([C@@H](Oc2nn(C)c3nnc(-c4c[nH]c(=O)[nH]c4=O)cc23)C(F)F)ccn1` (single isomer, unassigned) [Example 37B]?
**A.** IC50 (CD73 [1]): 0.09 nM; IC50 (CD73 [2]): 0.84 nM

**Q.** Which IC50 (CD73 [2]) does the source give for `CC(Oc1ccnc([C@@H](Oc2nn(C)c3nnc(-c4c[nH]c(=O)[nH]c4=O)cc23)C(F)F)c1)C(F)(F)F` (stereo partly drawn) [Example 17, 5-[1-methyl-3-[(1R)-2,2-difluoro-1-[4-(2,2,2-trifluoro-1-methyl-ethoxy)-2-pyridyl]ethoxy]pyrazolo[3,4-c]pyridazin-5-yl]-1H-pyrimidine-2,4-dione] here?
**A.** 0.39 nM

**Q.** Which IC50 (CD73 [2]) does the source give for `Cn1nc(O[C@H](c2cc(OCC3(F)CC3)ccn2)C(F)F)c2cc(-c3c[nH]c(=O)[nH]c3=O)nnc21` [Example 19, 5-[3-[(1R)-2,2-difluoro-1-[4-[(1-fluorocyclopropyl)methoxy]-2-pyridyl]ethoxy]-1-methyl-pyrazolo[3,4-c]pyridazin-5-yl]-1H-pyrimidine-2,4-dione] here?
**A.** 0.59 nM

**Q.** For `[2H]C([2H])([2H])n1nc(O[C@H](c2cc(OCC(F)(F)F)ccn2)C(F)F)c2cc(-c3c[nH]c(=O)[nH]c3=O)nnc21` [Example 6, 5-[3-[(1R)-2,2-difluoro-1-[4-(2,2,2-trifluoroethoxy)-2-pyridyl]ethoxy]-1-(trideuteriomethyl)pyrazolo[3,4-c]pyridazin-5-yl]-1H-pyrimidine-2,4-dione], which IC50 (CD73 [2]) is on record?
**A.** 0.43 nM

**Q.** `Cn1nc(O[C@H](c2ccnc(CN3CCC(F)(F)C3)c2)C(F)F)c2cc(-c3c[nH]c(=O)[nH]c3=O)nnc21` [Example 33, 5-[3-[(1R)-1-[2-[(3,3-difluoropyrrolidin-1-yl)methyl]-4-pyridyl]-2,2-difluoro-ethoxy]-1-methyl-pyrazolo[3,4-c]pyridazin-5-yl]-1H-pyrimidine-2,4-dione] was tested. Which IC50 (CD73 [2]) did it give?
**A.** 0.63 nM

**Q.** `Cn1nc(O[C@H](c2cc(OCC3CC3(F)F)ccn2)C(F)F)c2cc(-c3c[nH]c(=O)[nH]c3=O)nnc21` (stereo partly drawn) [Example 18, 5-[1-methyl-3-[(1R)-1-[4-[(2,2-difluorocyclopropyl)methoxy]-2-pyridyl]-2,2-difluoro-ethoxy]pyrazolo[3,4-c]pyridazin-5-yl]-1H-pyrimidine-2,4-dione] was tested. Which IC50 (CD73 [2]) did it give?
**A.** 0.54 nM

**Q.** How did the IC50 (CD73 [2]) turn out when `Cn1nc(O[C@H](c2ccc3c(c2)N(CC(F)(F)F)CCO3)C(F)F)c2cc(-c3c[nH]c(=O)[nH]c3=O)nnc21` [Example 25, 5-[3-[(1R)-2,2-difluoro-1-[4-(2,2,2-trifluoroethyl)-2,3-dihydro-1,4-benzoxazin-6-yl]ethoxy]-1-methyl-pyrazolo[3,4-c]pyridazin-5-yl]-1H-pyrimidine-2,4-dione] was run?
**A.** 1.29 nM

**Q.** How did the IC50 (CD73 [2]) turn out when `COC1(COc2cc([C@@H](Oc3nn(C)c4nnc(-c5c[nH]c(=O)[nH]c5=O)cc34)C(F)F)ccn2)CC1` [Example 41, 5-[3-[(1R)-2,2-difluoro-1-[2-[(1-methoxycyclopropyl)methoxy]-4-pyridyl]ethoxy]-1-methyl-pyrazolo[3,4-c]pyridazin-5-yl]-1H-pyrimidine-2,4-dione] was run?
**A.** 0.73 nM

**Q.** With `CCOc1cc([C@@H](Oc2nn(C)c3nnc(-c4c[nH]c(=O)[nH]c4=O)cc23)C(F)F)ccn1` [Example 29, 5-[3-[(1R)-1-(2-ethoxy-4-pyridyl)-2,2-difluoro-ethoxy]-1-methyl-pyrazolo[3,4-c]pyridazin-5-yl]-1H-pyrimidine-2,4-dione] as the molecule, how does the IC50 (CD73 [2]) read?
**A.** 0.51 nM

**Q.** `[2H]C([2H])([2H])C([2H])([2H])Oc1cc([C@@H](Oc2nn(C)c3nnc(-c4c[nH]c(=O)[nH]c4=O)cc23)C(F)F)ncn1` [Example 39A, 5-[3-[(1R)-2,2-difluoro-1-[6-(1,1,2,2,2-pentadeuterioethoxy)pyrimidin-4-yl]ethoxy]-1-methyl-pyrazolo[3,4-c]pyridazin-5-yl]-1H-pyrimidine-2,4-dione] was tested. Which IC50 (CD73 [2]) did it give?
**A.** 0.65 nM

**Q.** `[2H]C([2H])(Oc1ccnc([C@@H](Oc2nn(C)c3nnc(-c4c[nH]c(=O)[nH]c4=O)cc23)C(F)F)c1)C(F)(F)F` [Example 5, 5-[3-[(1R)-1-[4-(1,1-dideuterio-2,2,2-trifluoro-ethoxy)-2-pyridyl]-2,2-difluoro-ethoxy]-1-methyl-pyrazolo[3,4-c]pyridazin-5-yl]-1H-pyrimidine-2,4-dione] was tested. Which IC50 (CD73 [2]) did it give?
**A.** 0.52 nM
